Test results from ChEMBL document CHEMBL1201862, “PubChem BioAssay data set” (2004).
Calls of active or inactive are those of the source.

Tests used:
[1] = target: Peroxisome proliferator-activated receptor gamma/Nuclear receptor coactivator 3 (Homo sapiens, UniProt P37231); experiment: TR-FRET dose response biochemical High Throughput Screening assay for agonists of the steroid receptor coactivator 3 (SRC-3) recruitment by the peroxisome proliferator-activated receptor gamma (PPAR gamma): non-selective agonists. [Related pubchem assays: 1301 (Confirmation screen.), 1048 (Primary screen.)]; assay type: functional
[2] = target: Peroxisome proliferator-activated receptor gamma/Nuclear receptor coactivator 2 (Homo sapiens, UniProt P37231); experiment: (§1) TR-FRET dose response biochemical High Throughput Screening assay for agonists of the steroid receptor coactivator 2 (SRC-2) recruitment by the peroxisome proliferator-activated receptor gamma (PPAR gamma): non-selective agonists. [Related pubchem assays: 1297, 1032 ]; assay type: functional
[3] = target: Peroxisome proliferator-activated receptor gamma/Nuclear receptor coactivator 1 (Homo sapiens, UniProt P37231); experiment: as §1, with “1 (SRC-1)” for “2 (SRC-2)”, “assays (depositor defined):AID1300, AID1808, AID504735, AID631]” for “assays: 1297, 1032 ]”; assay type: protein assay
Troponin, cardiac muscle = Troponin, cardiac muscle (Homo sapiens, UniProt P19429+P45379+P63316); experiment: Fluorescence-based biochemical high throughput dose response assay for activators of the calcium sensitivity of cardiac Regulated Thin Filaments (RTF). [Related pubchem assays (depositor defined):AID493008, AID493018, AID504382, AID504383]; assay type: protein-complex assay
[4] = target: T1, Tyrosine-protein phosphatase non-receptor type 22 (Homo sapiens, UniProt Q9Y2R2); assay type: functional
[5] = target: T1, Tyrosine-protein phosphatase non-receptor type 22; assay type: functional; remark: listed apart in the source
[6] = target: T2, High affinity choline transporter 1 (Homo sapiens, UniProt Q9GZV3); experiment: CHT inhibitors, dose response, cell-based, 5-point CRC, membrane potential dye (AID 504840); assay type: functional
T2 sequence (Q9GZV3 whole entry): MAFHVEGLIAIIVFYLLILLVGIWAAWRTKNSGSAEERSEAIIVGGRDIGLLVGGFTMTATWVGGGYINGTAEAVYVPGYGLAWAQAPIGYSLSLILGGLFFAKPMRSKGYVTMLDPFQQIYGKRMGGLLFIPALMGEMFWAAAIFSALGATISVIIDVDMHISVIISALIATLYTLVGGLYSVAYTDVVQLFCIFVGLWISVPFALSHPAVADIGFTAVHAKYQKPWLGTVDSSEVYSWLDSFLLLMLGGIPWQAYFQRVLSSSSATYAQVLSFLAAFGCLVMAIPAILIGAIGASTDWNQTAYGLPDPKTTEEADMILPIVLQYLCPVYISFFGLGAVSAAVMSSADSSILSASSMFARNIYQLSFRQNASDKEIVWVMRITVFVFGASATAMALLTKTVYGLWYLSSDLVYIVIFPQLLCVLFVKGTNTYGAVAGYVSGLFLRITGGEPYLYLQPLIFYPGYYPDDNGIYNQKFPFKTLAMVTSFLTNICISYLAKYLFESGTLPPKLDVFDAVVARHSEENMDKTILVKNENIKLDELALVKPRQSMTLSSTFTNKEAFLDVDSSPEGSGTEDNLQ

[7] = target: Tyrosine-protein phosphatase non-receptor type 7 (Homo sapiens, UniProt P35236); assay type: functional
[8] = target: Protein-arginine deiminase type-4 (Homo sapiens, UniProt Q9UM07); experiment: human PAD4 inhibitor potency, dose response, biochemical, fluorescence readout (AID 492970)
Protein RecA = target: T3, Protein RecA (Mycobacterium tuberculosis, UniProt P9WHJ3); experiment: Fluorescence Cell-Free Homogeneous Dose Retest to Identify Inhibitors of RecA-Intein Splicing Activity. [Related pubchem assays (depositor defined):AID2097, AID2223, AID489010, AID492950]; assay type: functional
T3 sequence (P9WHJ3 whole entry): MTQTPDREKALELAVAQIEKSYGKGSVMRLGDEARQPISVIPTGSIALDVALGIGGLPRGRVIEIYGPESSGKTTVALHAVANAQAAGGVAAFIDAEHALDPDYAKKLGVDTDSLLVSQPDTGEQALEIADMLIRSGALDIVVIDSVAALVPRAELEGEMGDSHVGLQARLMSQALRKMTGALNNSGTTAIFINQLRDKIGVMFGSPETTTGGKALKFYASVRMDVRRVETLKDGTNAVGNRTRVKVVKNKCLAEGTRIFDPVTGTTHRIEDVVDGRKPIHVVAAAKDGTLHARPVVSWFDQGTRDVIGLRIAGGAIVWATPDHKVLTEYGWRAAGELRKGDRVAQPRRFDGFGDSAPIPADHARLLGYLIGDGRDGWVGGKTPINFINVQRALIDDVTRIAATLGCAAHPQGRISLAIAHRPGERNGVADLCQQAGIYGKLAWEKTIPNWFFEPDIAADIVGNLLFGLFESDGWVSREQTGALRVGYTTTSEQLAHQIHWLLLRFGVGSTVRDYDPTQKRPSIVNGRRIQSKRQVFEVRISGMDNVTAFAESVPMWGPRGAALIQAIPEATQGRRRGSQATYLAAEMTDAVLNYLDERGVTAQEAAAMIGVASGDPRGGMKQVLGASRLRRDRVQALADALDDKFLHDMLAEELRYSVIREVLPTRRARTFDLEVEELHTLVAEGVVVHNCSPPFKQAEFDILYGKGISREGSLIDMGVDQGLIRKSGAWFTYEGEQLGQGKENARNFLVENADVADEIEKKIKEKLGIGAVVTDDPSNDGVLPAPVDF

[9] = target: T4, Replicative DNA helicase DnaB (Mycobacterium tuberculosis, UniProt P9WMR3); experiment: DnaB intein splicing inhibitors, dose response, biochemical, cell-free fluorescence (AID 449749); assay type: functional
T4 sequence (P9WMR3 whole entry): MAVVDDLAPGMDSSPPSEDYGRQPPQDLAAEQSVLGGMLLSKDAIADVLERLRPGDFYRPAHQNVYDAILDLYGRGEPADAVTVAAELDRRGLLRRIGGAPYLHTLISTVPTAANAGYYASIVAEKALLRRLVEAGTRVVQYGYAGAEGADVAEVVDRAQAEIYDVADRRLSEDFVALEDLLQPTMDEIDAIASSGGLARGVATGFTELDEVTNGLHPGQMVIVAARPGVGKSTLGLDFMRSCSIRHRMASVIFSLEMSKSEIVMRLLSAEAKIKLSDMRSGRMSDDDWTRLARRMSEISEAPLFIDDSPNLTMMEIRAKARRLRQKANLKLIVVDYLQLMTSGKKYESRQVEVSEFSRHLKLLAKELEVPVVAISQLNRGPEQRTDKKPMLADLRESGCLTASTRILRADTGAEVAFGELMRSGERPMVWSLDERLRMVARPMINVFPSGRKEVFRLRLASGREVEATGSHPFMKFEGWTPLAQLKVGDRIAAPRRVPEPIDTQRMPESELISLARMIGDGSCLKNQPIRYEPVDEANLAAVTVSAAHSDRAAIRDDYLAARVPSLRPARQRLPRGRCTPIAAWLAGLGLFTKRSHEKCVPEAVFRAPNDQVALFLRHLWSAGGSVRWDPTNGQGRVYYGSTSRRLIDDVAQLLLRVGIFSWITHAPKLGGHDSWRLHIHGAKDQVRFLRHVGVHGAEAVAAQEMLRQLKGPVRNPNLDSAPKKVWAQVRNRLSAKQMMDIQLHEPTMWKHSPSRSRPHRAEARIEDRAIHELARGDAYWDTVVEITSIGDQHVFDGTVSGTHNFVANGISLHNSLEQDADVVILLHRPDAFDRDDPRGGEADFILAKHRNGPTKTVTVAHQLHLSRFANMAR

[10] = target: Sphingosine 1-phosphate receptor 1 (Homo sapiens, UniProt P21453); experiment: Fluorescence-based counterscreen assay for S1P4 agonists: Cell-based dose response high throughput screening assay to identify agonists of the Sphingosine 1-Phosphate Receptor 1 (S1P1). [Related pubchem assays (depositor defined):AID1509, AID1523, AID1801, AID463107, AID463118, AID463119, AID463122, AID463123, AID463129, AID463225, AID504400, AID504460]; assay type: functional
[11] = target: T5, Sphingosine 1-phosphate receptor 4 (Homo sapiens, UniProt O95977); experiment: Fluorescence dose response cell-based high throughput screening assay for agonists of the Sphingosine 1-Phosphate Receptor 4 (S1P4). [Related pubchem assays: 1509 (Primary screen.), 1523 (Confirmation screen in triplicates.)]; assay type: functional
T5 sequence (O95977 whole entry): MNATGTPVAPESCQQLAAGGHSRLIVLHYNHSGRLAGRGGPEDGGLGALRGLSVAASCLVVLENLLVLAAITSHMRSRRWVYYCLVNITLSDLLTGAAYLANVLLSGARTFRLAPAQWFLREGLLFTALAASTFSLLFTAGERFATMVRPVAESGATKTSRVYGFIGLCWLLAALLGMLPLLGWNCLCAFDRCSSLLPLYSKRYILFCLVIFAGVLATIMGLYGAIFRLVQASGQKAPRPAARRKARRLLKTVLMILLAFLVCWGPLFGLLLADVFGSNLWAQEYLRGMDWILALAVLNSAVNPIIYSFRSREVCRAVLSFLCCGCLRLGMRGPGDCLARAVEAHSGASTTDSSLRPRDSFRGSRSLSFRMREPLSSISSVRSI

[12] = target: T6, RNA-binding protein pos-1 (Caenorhabditis elegans, UniProt G5EF15); experiment: inhibitors of POS-1/mex-3 RNA binding, dose response, biochemical, fluorescence polarization (AID 1964);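 also: purified POS-1 fused to maltose binding protein made in E. coli; potency of compounds blocking POS-1 binding to fluorescent RNA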
T6 sequence (G5EF15 whole entry): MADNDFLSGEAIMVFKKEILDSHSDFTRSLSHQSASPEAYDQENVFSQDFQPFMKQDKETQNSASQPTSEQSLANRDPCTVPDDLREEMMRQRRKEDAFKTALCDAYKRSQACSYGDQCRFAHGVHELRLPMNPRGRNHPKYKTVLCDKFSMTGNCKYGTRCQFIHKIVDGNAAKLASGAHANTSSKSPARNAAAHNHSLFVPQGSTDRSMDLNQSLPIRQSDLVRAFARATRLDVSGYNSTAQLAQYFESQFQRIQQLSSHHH

[13] = target: T7, Zinc finger protein mex-5 (Caenorhabditis elegans, UniProt Q9XUB2); experiment: MEX-5/TCR-2 RNA interaction inhibitors, dose response, biochemical, C. elegans, fluorescence polarization (AID 1960)
T7 sequence (Q9XUB2 whole entry): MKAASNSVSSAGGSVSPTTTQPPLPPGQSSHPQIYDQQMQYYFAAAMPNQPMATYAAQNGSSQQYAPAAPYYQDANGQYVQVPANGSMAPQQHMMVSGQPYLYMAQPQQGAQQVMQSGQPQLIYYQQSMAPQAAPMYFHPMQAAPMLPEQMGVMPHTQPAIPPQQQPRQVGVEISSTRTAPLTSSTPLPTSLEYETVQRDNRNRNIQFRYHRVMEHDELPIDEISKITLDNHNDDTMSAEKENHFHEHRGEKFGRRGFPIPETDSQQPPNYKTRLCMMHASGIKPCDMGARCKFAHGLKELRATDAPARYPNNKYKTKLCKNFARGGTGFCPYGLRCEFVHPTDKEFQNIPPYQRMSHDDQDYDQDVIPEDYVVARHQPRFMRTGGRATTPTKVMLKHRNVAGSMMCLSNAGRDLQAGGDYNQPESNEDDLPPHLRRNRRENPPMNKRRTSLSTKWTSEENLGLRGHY

**Q.** For CNC(=S)N1N=C(c2ccc(Br)cc2)CC1c1ccc(N(C)C)cc1 (stereo not given), which EC50 [1] is on record?
**A.** > 79.4 µM (not active)

**Q.** What about the EC50 [2] of the same compound?
**A.** 14 µM (not active)

**Q.** And the EC50 [3]?
**A.** 11.6 µM (inactive)

**Q.** What about the EC50 (Troponin, cardiac muscle) of the same compound?
**A.** 40 µM (inactive)

**Q.** What does the source list for Cc1occc1C(=O)NNS(=O)(=O)c1ccc(Cl)cc1?
**A.** IC50 [4]: > 79.4 µM (inactive); IC50 [5]: > 79.4 µM (inactive); IC50 [6]: 13.5 µM (active); IC50 [7]: > 79.4 µM (inactive)

**Q.** Which results are given for COC(=O)c1nc(O)c2ccccc2c1O?
**A.** IC50 [8]: 42 µM (inactive); EC50 (Protein RecA): 3.57 µM (active); AC50 [9]: 5.62 µM (active)

**Q.** For CCOC(=O)c1c(-n2c(C)cc(C=C3C(=O)NC(=O)NC3=O)c2C)sc2c1CCCC2, which EC50 [10] is on record?
**A.** > 49.8 µM (inactive)

**Q.** And the EC50 [11]?
**A.** > 16.6 µM (not active)

**Q.** What about the EC50 [12] of the same compound?
**A.** > 300 µM (inconclusive)

**Q.** What about the EC50 [13] of the same compound?
**A.** > 300 µM (inconclusive)
